# Assay results reported in US20210145830A1, “MATERIALS AND METHODS FOR TREATING CANCER” (Mayo Foundation for Medical Education and Research, priority 2018, published 2021).
# “Also recorded” adds a separate entry of the source.
# How the values were obtained:
# luciferase-positive Jeko = test: CART19 cytotoxicity in the presence of TP0903; assay type: cell-based
# Procedure: FIG. 1 contains a graph showing CART19 cytotoxicity in the presence TP0903. CART19 or untransduced T cells (UTDs) were co-cultured at different effector-to-target ratios (E:T) with luciferase-positive Jeko with increasing doses of TP0903 (TP). At 24 hours, cell killing was assessed by luminescence.
# FIGS. 16A-B. A head-to-head comparison of two different combination therapy. UTDs (A) or CART19 (B) were co-cultured at different effector-to-target ratios (E:T) with luciferase-positive CD19^+ cell line in the presence of DMSO, 30 nM TP0903, or 100 nM ibrutinib. Cell killing was assessed by luminescence at 24 hours.
# FIG. 22A-C. In vitro experiment for the combination of CART19 and TP0903. A. CART19 were cocultured at different effector-to-target ratio (E:T) with luciferase-positive JeKo-1. At 48 hours, cell killing was assessed by luminescence. […] The means and SEM are shown (**, p<0.005, *, p<0.05, one-way ANOVA analysis). n.s., not statistically significant. B. CART19 degranulation assay and cytokine production in the presence of TP0903. CART19 were cocultured with JeKo-1 for 4 hours in the presence of TP0903 doses of TP0903 (10-65 nM). […] C. Th2/Th1 T cell subtype analysis during CART19 expansion in the presence pf TP0903. CART19 cells were stimulated with lethally irradiated (120 Gy) JeKo-1 cell lines in the presence of increasing doses of TP0903 (10-30 nM). At the day 3, Th1 and Th2 cells were defined using CD4, CCR6, CCR4 and CXCR3 expression. […] The means and SEM are shown (*, p<0.05, one-way ANOVA analysis). n.s., not statistically significant.
# JEKO-Luc cells or primary B cells were used for cytotoxicity assay. In brief, targets were incubated at the indicated ratios with effector T cells for 4 or 16 hours. Killing was calculated either by bioluminescence imaging on a Xenogen IVIS-200 Spectrum camera (PerkinElmer, Hopkinton, Mass., USA) or by flow cytometry. For the latter, cells were harvested; Countbright beads and life/dead (Invitrogen) were added prior to analysis. Residual live target cells were CD19+L/D−.
# CART19 or UTDs were cocultured at different effector-to-target ratio (E:T) with luciferase-positive Jeko or with primary CLL cells, with increasing dose of TP0903 as indicated on the X axis. At 24 hours, cell killing was assessed by luminescence or by flow cytometry.
# CART19 = CART19 proliferation assay in the presence of TP0903; assay type: cell-based; details: 5 days
# Procedure: FIG. 2 contains an exemplary timeline for a CART19 proliferation assay in the presence of TP0903. UTDs or CART19 were incubated with Jeko in the presence of TP0903 in 1:1 ratio. At day 5, total T cell numbers were evaluated with CountBright quantification.
# T cells were washed and re-suspended at 1×10^7/mL in 100 μL of phosphate-buffered saline and labeled with 100 μL of carboxyfluorescein succinimidyl ester (CFSE) 2.5 μM (Life Technologies) for 5 minutes at 37° C. The reaction was then quenched with cold R10, and the cells were washed three times. Targets were irradiated at a dose of 100 Gy. T cells were incubated at a 1:1 ratio with irradiated target cells for 120 hours. Cells were then harvested, stained for CD3, CAR and Live Dead aqua (Invitrogen), and Countbright beads (Invitrogen) were added prior to flow cytometric analysis.
# UTDs or CART19 were incubated with Jeko cell line or primary CLL cells in the presence of TP0903, at 1:1 ratio for 5 days. At the end of the experiment, cells were harvested and stained for CD3, live dead staining was performed, and counti bright beads were added prior to flow cytometric analyses (FIG. 2). Absolute T cell numbers were calculated based on this. […] Low doses of TP0903 (10 nM) increased the number of CART19 cells. A high dose of TP0903 (>100 nM) decreased the number of CART19.
smiles,measurement,setting,value
CN1CCN(Cc2ccc(Nc3ncc(Cl)c(Nc4ccccc4S(=O)(=O)N(C)C)n3)cc2)CC1 [TP0903],"cell killing, head-to-head comparison of combinations","luciferase-positive Jeko; 30 nM TP0903 + CART19 vs 100 nM ibrutinib + CART19, luciferase-positive CD19+ cell line, 24 hours",more synergistic killing
same,type of combination effect on cell killing,"luciferase-positive Jeko; CART19 + TP0903, from calculations",synergistic rather than an additive effect
same,cell killing assessed by luminescence,"luciferase-positive Jeko; CART19 + increasing doses of TP0903, different E:T ratios, luciferase-positive Jeko or primary CLL cells, 24 hours",robust killing at all E:T ratios
same,cytotoxic effect versus TP0903 dose,"luciferase-positive Jeko; CART19 with luciferase-positive JeKo-1, 48 hours, at a specific E:T ratio",increased cytotoxic effect was significantly correlated to increased TP0903 dose
same,antitumor activity against JeKo in vitro,"luciferase-positive Jeko; combination of CART19 cells and TP0903, low E:T ratios",synergistic antitumor activity
same,CART cell specific proliferation,CART19; 1:1 with Jeko or primary CLL cells,did not impair; also recorded: does not inhibit
same,number of CART19 cells,CART19; high dose of TP0903 (>100 nM),decreased
same,number of CART19 cells,CART19; low doses of TP0903 (10 nM),increased
